What follows are molecules tested against T1, FLT3 (Homo sapiens, UniProt P36888) (assay: Inhibition of FLT3, 33P-ATP kinase assay with filter-binding detection). Settings: 33P-ATP 10 uM, 2 hours at room temperature, filter-binding method.
T1 sequence (P36888 27-993): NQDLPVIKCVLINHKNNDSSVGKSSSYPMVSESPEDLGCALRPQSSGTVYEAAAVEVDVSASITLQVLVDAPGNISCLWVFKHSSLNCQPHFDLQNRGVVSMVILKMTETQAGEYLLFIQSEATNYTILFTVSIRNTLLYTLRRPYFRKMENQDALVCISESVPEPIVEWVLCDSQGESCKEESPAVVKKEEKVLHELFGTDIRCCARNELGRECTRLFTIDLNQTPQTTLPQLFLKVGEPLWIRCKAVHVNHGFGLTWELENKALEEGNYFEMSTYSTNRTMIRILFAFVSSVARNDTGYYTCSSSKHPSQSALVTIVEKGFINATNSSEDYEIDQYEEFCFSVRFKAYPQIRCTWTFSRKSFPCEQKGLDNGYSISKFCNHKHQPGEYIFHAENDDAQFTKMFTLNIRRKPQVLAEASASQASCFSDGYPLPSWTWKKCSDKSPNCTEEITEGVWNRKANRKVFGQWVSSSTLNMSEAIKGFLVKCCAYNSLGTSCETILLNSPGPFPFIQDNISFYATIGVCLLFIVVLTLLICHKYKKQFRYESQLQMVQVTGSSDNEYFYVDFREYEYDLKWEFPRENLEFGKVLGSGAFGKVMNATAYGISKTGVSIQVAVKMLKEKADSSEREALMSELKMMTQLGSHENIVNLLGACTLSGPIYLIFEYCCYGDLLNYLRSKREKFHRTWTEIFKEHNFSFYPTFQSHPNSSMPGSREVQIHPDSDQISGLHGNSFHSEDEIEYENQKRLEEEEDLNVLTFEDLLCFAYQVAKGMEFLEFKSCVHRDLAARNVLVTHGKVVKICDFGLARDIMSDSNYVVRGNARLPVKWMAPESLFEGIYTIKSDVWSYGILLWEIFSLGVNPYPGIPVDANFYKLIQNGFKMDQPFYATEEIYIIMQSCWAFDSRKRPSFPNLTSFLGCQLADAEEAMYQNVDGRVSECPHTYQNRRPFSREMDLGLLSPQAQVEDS
Format: biochemical
Method: Prepare indicated substrate in freshly prepared Base Reaction Buffer (20 mM Hepes (pH 7.5), 10 mM MgCl2, 1 mM EGTA, 0.02% Brij35, 0.02 mg/ml BSA, 0.1 mM Na3VO4, 2 mM DTT, 1% DMSO). Deliver any required cofactors to the substrate solution above. Deliver indicated kinase into the substrate solution and gently mix. The testing compounds in DMSO was added into the kinase reaction mixture by Acoustic technology (Echo550; nanoliter range) and incubated for 20 minutes at room temperature. Deliver 33P-ATP (specific activity […]) into the reaction mixture to initiate the reaction. Incubate kinase reaction for 2 hours at room temperature. Reactions are spotted onto P81 ion exchange paper. Detect kinase activity by filter-binding method.
Inhibition of FLT3 with 4-Quinolone Derivatives

| SMILES | IC50 [nM] |
| --- | --- |
| O=c1c2cc(F)ccc2sc2c(NCCCO)nc3ccccc3c12 [compound 7729, 10-fluoro-6-(3-hydroxypropylamino)-12H-thiochromeno[2,3-c]quinolin-12-one] | > 1000 |
| COCCNc1nc2ccccc2c2c(=O)c3cc(F)ccc3sc12 [compound 7745, 10-fluoro-6-(2-methoxyethylamino)-12H-thiochromeno[2,3-c]quinolin-12-one] | > 1000 |
| O=c1c2cc(F)ccc2sc2c(Nc3ccncc3)nc3ccccc3c12 [compound 7763, 10-fluoro-6-(pyridin-4-ylamino)-12H-thiochromeno[2,3-c]quinolin-12-one] | > 1000 |
| COc1ccc2sc3c(N)nc4ccccc4c3c(=O)c2c1 [compound 7709, 6-Amino-10-methoxy-12H-thiochromeno[2,3-c]quinolin-12-one] | > 1000 |
| O=c1c2cc(C(F)(F)F)ccc2sc2c(NCCCNCCO)nc3ccccc3c12 [compound 7214, 6-(3-(2-hydroxyethylamino)propylamino)-10-trifluoromethyl-12H-thiochromeno[2,3-c]quinolin-12-one] | > 1000 |
| CNCCCNc1nc2ccccc2c2c(=O)c3cc(Cl)ccc3sc12 [compound 7721, 10-chloro-6-(3-(methylamino)propylamino)-12H-thiochromeno[2,3-c]quinolin-12-one] | 501 to 1000 |
| COc1ccc2sc3c(NCCO)nc4ccccc4c3c(=O)c2c1 [compound 7733, 6-(2-Hydroxyethylamino)-10-methoxy-12H-thiochromeno[2,3-c]quinolin-12-one] | > 1000 |
| O=c1c2cc(F)ccc2sc2c(N3CCNCC3)nc3ccc(F)cc3c12 [compound 7425, 2,10-difluoro-6-(piperazin-1-yl)-12H-thiochromeno[2,3-c]quinolin-12-one] | > 1000 |
| CCCNc1nc2ccccc2c2c(=O)c3cc(OC)ccc3sc12 [compound 7710, 10-methoxy-6-(propylamino)-12H-thiochromeno[2,3-c]quinolin-12-one] | > 1000 |
| CCCNc1nc2ccccc2c2c(=O)c3cc(F)ccc3sc12 [compound 7706, 10-fluoro-6-(propylamino)-12H-thiochromeno[2,3-c]quinolin-12-one] | > 1000 |
| CCNc1nc2ccccc2c2c(=O)c3cccc(OC)c3sc12 [compound 7245, 6-(ethylamino)-8-methoxy-12H-thiochromeno[2,3-c]quinolin-12-one] | > 1000 |
| O=c1c2cc(F)ccc2sc2c(Nc3cccnc3)nc3ccccc3c12 [compound 7761, 10-fluoro-6-(pyridin-3-ylamino)-12H-thiochromeno[2,3-c]quinolin-12-one] | > 1000 |
| NCCCNc1nc2ccccc2c2c(=O)c3cc(OC(F)(F)F)ccc3sc12 [compound 7203, 6-(3-aminopropylamino)-10-(trifluoromethoxy)-12H-thiochromeno[2,3-c]quinolin-12-one] | > 1000 |
| O=c1c2cc(F)ccc2sc2c(NCCCN3CCCC3)nc3ccccc3c12 [compound 7753, 10-fluoro-6-(3-(pyrrolidin-1-yl)propylamino)-12H-thiochromeno[2,3-c]quinolin-12-one] | > 1000 |
| O=c1c2cc(F)cc(Cl)c2sc2c(NCCCNCCO)nc3ccccc3c12 [compound 7226, 8-chloro-10-fluoro-6-(3-(2-hydroxyethylamino)propylamino)-12H-thiochromeno[2,3-c]quinolin-12-one] | > 1000 |
| CN(C)CCNc1nc2ccccc2c2c(=O)c3cc(F)ccc3sc12 [compound 7744, 6-(2-(dimethylamino)ethylamino)-10-fluoro-12H-thiochromeno[2,3-c]quinolin-12-one] | 201 to 500 |

Next, values leading:

| IC50 [nM] | SMILES |
| --- | --- |
| 501 to 1000 | O=c1c2cc(F)ccc2sc2c(NCCN3CCCC3)nc3ccccc3c12 [compound 7755, 10-fluoro-6-(2-(pyrrolidin-1-yl)ethylamino)-12H-thiochromeno[2,3-c]quinolin-12-one] |
| 51 to 200 | NCCNc1nc2ccccc2c2c(=O)c3cc(F)cc(F)c3sc12 [compound 7254, 6-(2-aminoethylamino)-8,10-difluoro-12H-thiochromeno[2,3-c]quinolin-12-one] |
| > 1000 | CCCNc1nc2ccccc2c2c(=O)c3ccc(Cl)cc3sc12 [compound 7725, 9-chloro-6-(propylamino)-12H-thiochromeno[2,3-c]quinolin-12-one] |
| > 1000 | O=c1c2cc(F)ccc2sc2c(NCCNc3ccccn3)nc3ccccc3c12 [compound 7765, 10-fluoro-6-((2-(pyridin-2-ylamino)ethyl)amino)-12H-thiochromeno[2,3-c]quinolin-12-one] |
| > 1000 | Cc1ccc2sc3c(NCc4ccccc4)nc4ccccc4c3c(=O)c2c1 [compound 7233, 6-(benzylamino)-10-methyl-12H-thiochromeno[2,3-c]quinolin-12-one] |
| > 1000 | COc1ccc2sc3c(NCCCO)nc4ccccc4c3c(=O)c2c1 [compound 7742, 10-methoxy-6-(3-hydroxypropylamino)-12H-thiochromeno[2,3-c]quinolin-12-one] |
| > 1000 | NCCNc1nc2ccc(F)cc2c2c(=O)c3cc(F)ccc3sc12 [compound 7422, 6-(2-aminoethylamino)-2,10-difluoro-12H-thiochromeno[2,3-c]quinolin-12-one] |
| > 1000 | O=c1c2cc(F)ccc2sc2c(-n3ccnc3)nc3ccccc3c12 [compound 7766, 10-fluoro-6-(1H-imidazol-1-yl)-12H-thiochromeno[2,3-c]quinolin-12-one] |
| > 1000 | CCCNc1nc2ccccc2c2c(=O)c3cc(Cl)ccc3sc12 [compound 7703, 10-chloro-6-(propylamino)-12H-thiochromeno[2,3-c]quinolin-12-one] |
| > 1000 | COc1ccc2sc3c(NCCCN(C)C)nc4ccccc4c3c(=O)c2c1 [compound 7735, 6-(3-(dimethylamino)propylamino)-10-methoxy-12H-thiochromeno[2,3-c]quinolin-12-one] |
| > 1000 | CCNc1nc2ccccc2c2c(=O)c3cccc(F)c3sc12 [compound 7241, 6-(ethylamino)-8-fluoro-12H-thiochromeno[2,3-c]quinolin-12-one] |
| > 1000 | O=c1c2cc(Cl)ccc2sc2c(NCCCO)nc3ccccc3c12 [compound 7719, 10-chloro-6-(3-hydroxypropylamino)-12H-thiochromeno[2,3-c]quinolin-12-one] |
| 51 to 200 | NCCNc1nc2ccccc2c2c(=O)c3cc(F)cc(Cl)c3sc12 [compound 7248, 6-(2-aminoethylamino)-8-chloro-10-fluoro-12H-thiochromeno[2,3-c]quinolin-12-one] |
| > 1000 | Nc1nc2ccccc2c2c1S(=O)(=O)c1ccc(Cl)cc1C2=O [compound 7001, 6-Amino-10-chloro-12H-thiochromeno[2,3-c]quinolin-12-one 7,7-dioxide] |
| 201 to 500 | Cc1ccc2sc3c(NCCCNCCO)nc4ccccc4c3c(=O)c2c1 [compound 7215, 6-(3-(2-hydroxyethylamino)propylamino)-10-methyl-12H-thiochromeno[2,3-c]quinolin-12-one] |
| 201 to 500 | O=c1c2cc(F)ccc2sc2c(NCCCNCCO)nc3ccccc3c12 [compound 7708, 10-fluoro-6-(3-(2-hydroxyethylamino)propylamino)-12H-thiochromeno[2,3-c]quinolin-12-one] |
| > 1000 | O=c1c2cc(F)ccc2sc2c(NCc3cccnc3)nc3ccccc3c12 [compound 7748, 10-fluoro-6-(pyridin-3-ylmethylamino)-12H-thiochromeno[2,3-c]quinolin-12-one] |
